Experimental data: ChEMBL document CHEMBL1201862, “PubChem BioAssay data set” (2004)
Activity calls are given as the source filed them.

Legend:
[1] = biological target: Cytochrome P450 3A4 (Homo sapiens, UniProt P08684); settings: Potency;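 also: confirmatory qHTS run detecting inhibitors and substrates of CYP3A4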
[2] = biological target: T1, Apoptotic protease-activating factor 1 (Homo sapiens, UniProt O14727); assay type: functional
T1 sequence (O14727 whole entry): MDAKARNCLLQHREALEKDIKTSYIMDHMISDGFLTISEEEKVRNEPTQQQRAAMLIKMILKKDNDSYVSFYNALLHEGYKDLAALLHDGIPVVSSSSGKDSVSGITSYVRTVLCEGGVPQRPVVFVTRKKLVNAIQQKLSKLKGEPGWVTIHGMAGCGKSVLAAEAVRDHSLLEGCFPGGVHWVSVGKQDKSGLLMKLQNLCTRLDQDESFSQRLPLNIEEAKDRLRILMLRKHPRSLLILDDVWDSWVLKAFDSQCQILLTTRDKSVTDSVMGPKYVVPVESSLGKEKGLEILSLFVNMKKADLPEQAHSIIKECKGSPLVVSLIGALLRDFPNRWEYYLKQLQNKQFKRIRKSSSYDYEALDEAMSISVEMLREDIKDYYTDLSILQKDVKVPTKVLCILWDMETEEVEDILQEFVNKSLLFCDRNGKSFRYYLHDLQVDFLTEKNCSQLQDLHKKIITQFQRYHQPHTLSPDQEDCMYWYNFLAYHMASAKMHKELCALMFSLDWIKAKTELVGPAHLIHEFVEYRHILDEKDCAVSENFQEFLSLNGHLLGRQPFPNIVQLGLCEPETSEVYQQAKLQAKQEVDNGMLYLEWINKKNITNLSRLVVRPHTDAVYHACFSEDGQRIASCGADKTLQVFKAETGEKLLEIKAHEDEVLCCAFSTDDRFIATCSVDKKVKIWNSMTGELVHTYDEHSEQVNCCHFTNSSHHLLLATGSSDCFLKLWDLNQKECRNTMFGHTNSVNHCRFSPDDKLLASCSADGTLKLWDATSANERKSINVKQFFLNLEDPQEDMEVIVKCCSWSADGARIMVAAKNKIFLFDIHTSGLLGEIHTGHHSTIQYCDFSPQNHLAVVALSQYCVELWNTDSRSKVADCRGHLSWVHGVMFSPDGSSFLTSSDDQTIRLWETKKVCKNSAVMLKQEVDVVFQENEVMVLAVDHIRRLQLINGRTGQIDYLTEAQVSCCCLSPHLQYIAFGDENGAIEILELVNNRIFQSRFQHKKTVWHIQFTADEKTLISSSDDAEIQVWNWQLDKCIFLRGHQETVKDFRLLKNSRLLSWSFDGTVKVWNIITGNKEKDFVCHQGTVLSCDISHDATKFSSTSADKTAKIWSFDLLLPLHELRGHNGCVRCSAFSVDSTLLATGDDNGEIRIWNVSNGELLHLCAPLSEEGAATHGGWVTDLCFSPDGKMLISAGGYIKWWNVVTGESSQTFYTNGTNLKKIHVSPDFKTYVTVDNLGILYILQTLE

[3] = biological target: T2, Mannose-6-phosphate isomerase (Homo sapiens, UniProt P34949); assay: inhibitors of human PMI, primary screen, biochemical, fluorescence intensity, coupled assay (AID 1209)
T2 sequence (P34949 whole entry): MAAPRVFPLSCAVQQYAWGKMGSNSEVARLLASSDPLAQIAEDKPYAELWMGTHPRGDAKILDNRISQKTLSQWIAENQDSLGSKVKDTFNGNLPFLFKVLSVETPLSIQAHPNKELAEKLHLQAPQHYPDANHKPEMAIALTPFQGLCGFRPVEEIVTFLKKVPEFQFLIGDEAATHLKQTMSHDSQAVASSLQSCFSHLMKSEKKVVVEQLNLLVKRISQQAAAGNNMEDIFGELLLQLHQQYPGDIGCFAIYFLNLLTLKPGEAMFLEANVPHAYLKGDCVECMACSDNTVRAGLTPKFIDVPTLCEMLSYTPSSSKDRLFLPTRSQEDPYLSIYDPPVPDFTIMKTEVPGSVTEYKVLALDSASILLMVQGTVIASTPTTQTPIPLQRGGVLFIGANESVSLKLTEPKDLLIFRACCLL

[4] = biological target: T3, Protein RecA (Mycobacterium tuberculosis, UniProt P9WHJ3); assay: Fluorescence Cell-Free Homogeneous Dose Retest to Identify Inhibitors of RecA-Intein Splicing Activity. [Related pubchem assays (depositor defined):AID2097, AID2223, AID489010, AID492950]; assay type: functional
T3 sequence (P9WHJ3 whole entry): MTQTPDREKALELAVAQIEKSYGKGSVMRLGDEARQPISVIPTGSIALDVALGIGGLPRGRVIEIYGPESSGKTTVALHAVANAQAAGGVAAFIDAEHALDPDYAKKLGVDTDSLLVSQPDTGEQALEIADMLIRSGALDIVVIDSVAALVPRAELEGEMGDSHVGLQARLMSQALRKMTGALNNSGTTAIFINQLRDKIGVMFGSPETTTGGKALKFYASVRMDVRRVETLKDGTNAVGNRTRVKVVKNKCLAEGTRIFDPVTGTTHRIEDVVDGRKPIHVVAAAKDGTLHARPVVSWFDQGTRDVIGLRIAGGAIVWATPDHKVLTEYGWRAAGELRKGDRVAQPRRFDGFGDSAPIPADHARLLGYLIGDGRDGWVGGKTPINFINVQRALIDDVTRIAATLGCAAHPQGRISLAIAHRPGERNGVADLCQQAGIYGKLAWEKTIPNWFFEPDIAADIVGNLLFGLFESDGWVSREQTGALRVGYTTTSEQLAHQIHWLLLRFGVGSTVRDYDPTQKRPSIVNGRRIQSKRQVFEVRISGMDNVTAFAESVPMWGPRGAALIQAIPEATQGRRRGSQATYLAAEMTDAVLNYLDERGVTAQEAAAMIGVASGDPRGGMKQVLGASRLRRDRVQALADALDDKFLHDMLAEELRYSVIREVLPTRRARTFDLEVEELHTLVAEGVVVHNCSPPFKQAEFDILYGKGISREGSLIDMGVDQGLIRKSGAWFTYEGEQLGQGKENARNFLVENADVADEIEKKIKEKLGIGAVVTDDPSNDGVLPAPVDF

[5] = biological target: T2, Mannose-6-phosphate isomerase; assay: human PMI inhibitors, high substrate, primary screen, biochemical, fluorescence intensity, high mannose 6-phosphate (AID 1220)
[6] = biological target: T4, Cytochrome P450 2C9 (Homo sapiens, UniProt P11712)
T4 sequence (P11712 whole entry): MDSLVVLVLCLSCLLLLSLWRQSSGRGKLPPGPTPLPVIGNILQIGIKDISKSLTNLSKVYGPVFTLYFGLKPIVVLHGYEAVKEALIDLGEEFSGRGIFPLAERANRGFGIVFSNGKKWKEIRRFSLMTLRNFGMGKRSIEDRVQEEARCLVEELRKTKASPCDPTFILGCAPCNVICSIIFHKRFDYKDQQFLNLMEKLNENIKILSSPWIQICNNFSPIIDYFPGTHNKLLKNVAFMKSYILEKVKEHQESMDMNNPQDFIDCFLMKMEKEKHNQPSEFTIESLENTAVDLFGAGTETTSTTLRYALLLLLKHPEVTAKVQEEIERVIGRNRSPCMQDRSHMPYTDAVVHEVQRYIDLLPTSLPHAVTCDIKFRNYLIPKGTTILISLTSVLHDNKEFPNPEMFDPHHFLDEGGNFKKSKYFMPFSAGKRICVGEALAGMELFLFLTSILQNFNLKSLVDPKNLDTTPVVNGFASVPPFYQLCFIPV

[7] = biological target: T4, Cytochrome P450 2C9; settings: Potency
[8] = tested on: Streptococcus sp. 'group A'; assay: growth inhibition of control SK(-) GAS strain, dose response, counter-screen for streptokinase expression inhibitor project, luminescence, kanamycin, BacTiterGlo, confirmation (AID 1900); assay type: functional, organism-based
[9] = tested on: Vero; assay: Vero cell cytotoxicity, cytotoxicity control for flavivirus capping enzyme inhibitors (AID 588742); assay type: functional; settings: Chlorocebus sabaeus
[10] = tested on: Streptococcus; assay: Group A Streptococcus viability loss, dose response, counter-screen for streptokinase expression inhibitor project, luminescence, BacTiterGlo (AID 1915); assay type: functional, organism-based;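 also: potency for reduction of bacterial viability or growth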
[11] = ADAM10 protease inhibitors, dose response, selectivity assay for ADAM17 exosite inhibitor project, biochemical, FRET peptide substrate, recombinant human ADAM10 (AID 743259);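 also: ADAM10 enzyme cleaving a FRET peptide substrate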
[12] = tested on: INS1; assay: beta cell apoptosis inhibitors, cytokine rescue, dose response, luminescence, retest (AID 449756); assay type: functional, cell-based; settings: Rattus norvegicus;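 also: cell death triggered by IL-1 beta plus TNF-alpha plus IFN-gamma mixture; protective hits raise ATP signal compared with cytokine alone wells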
[13] = biological target: T5, Polyadenylate-binding protein 1 (Homo sapiens, UniProt P11940); assay: PABP1 MLLE–PAM2 interaction inhibitors, dose response, miRNA deadenylation inhibitor project, biochemical, fluorescence polarization, Cy5-PAM2 peptide, secondary (AID 602260); assay type: functional; settings: read-out: IC50_Mean
T5 sequence (P11940 whole entry): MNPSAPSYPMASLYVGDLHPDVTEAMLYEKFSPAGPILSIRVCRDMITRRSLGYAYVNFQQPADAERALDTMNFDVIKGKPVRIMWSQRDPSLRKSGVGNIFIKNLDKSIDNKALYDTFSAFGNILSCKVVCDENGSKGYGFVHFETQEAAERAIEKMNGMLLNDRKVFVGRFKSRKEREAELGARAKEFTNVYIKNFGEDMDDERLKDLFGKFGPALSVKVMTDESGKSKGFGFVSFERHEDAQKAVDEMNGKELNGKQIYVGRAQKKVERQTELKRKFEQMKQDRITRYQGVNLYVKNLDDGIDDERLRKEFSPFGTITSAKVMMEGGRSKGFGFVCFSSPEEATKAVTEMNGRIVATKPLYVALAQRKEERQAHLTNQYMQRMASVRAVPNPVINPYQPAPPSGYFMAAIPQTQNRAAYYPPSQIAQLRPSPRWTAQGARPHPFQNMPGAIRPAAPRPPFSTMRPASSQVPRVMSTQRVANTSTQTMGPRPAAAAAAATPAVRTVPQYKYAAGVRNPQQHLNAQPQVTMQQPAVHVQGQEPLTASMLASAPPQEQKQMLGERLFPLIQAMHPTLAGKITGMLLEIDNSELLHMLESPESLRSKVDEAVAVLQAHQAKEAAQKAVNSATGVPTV

[14] = Luminescence-based counterscreen assay for KLF5 inhibitors: dose response cell-based high throughput screening assay to identify cytotoxic compounds using the IEC-6 intestinal epithelial cell line. [Related pubchem assays: 1700 (Primary screen.), 1834 (Confirmation screen.), 1858 (Summary AID.), 1905 (Counterscreen.)]; assay type: functional
[15] = biological target: Heat shock protein HSP 90-alpha (Homo sapiens, UniProt P07900); assay type: functional, organism-based
[16] = biological target: Nonstructural protein 1 (Influenza A virus, UniProt Q194T2); assay type: functional, Influenza A virus (A/California/07/2009(H1N1))
Nonstructural protein 1, sequence (Q194T2 whole entry): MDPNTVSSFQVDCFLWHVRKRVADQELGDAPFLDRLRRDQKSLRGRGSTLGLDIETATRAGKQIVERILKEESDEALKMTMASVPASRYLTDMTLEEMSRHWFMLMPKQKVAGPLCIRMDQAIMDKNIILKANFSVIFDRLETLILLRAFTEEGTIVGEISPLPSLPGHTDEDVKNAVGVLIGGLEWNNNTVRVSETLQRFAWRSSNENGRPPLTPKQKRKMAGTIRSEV

[17] = biological target: T5, Polyadenylate-binding protein 1; assay: PABP1 MLLE–PAM2 binding inhibitor potency, dose response, biochemical, fluorescence polarization, FITC-PAM2 peptide (AID 602259); assay type: functional; settings: read-out: IC50_Mean
[18] = biological target: Disintegrin and metalloproteinase domain-containing protein 17 (Homo sapiens, UniProt P78536); assay: exosite inhibitors of ADAM17, dose response, biochemical (AID 743260)
Disintegrin and metalloproteinase domain-containing protein 17, sequence (P78536 whole entry, the tested form may be a part): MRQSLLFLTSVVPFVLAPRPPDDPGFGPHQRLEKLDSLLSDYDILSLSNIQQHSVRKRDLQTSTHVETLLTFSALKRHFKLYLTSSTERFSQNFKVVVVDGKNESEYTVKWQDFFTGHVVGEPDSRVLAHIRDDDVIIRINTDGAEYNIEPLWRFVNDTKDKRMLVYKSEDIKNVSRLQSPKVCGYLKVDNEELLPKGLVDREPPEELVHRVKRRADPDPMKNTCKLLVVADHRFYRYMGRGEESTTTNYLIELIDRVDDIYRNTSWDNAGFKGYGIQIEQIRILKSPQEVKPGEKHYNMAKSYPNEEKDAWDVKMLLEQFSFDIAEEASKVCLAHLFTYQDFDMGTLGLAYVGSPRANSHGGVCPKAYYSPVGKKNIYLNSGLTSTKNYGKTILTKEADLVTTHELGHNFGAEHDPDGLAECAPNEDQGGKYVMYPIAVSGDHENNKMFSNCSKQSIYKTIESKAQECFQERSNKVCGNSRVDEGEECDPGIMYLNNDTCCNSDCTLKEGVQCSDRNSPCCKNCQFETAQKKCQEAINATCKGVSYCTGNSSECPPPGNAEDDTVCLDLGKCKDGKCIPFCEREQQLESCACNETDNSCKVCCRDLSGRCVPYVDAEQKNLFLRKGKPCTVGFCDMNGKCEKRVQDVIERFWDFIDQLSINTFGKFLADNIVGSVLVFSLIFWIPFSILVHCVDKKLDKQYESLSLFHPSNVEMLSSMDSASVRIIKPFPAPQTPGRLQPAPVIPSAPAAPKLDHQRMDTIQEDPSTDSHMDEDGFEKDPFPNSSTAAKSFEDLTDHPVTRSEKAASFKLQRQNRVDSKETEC

[19] = Luminescence Cell-Based Dose Confirmation HTS to Identify Inhibitors of Platelet Dense Granule Release. [Related pubchem assays: 1663 (Primary HTS), 1678 (Summary of Project)]; assay type: functional
[20] = tested on: HEK293; assay: cells; settings: Homo sapiens;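 also: cells exposed to compound for 14 hours overnight before viability readout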
[21] = cytotoxicity in HEK-293T cells, dose response, cytotoxicity control for TCR NF-kB inhibitor project, luminescence, T-cell screen hits (AID 489026); assay type: functional, cell-based;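 also: cells exposed to compound about 14 hours before the viability readout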

Cytochrome P450 3A4, sequence (P08684 whole entry): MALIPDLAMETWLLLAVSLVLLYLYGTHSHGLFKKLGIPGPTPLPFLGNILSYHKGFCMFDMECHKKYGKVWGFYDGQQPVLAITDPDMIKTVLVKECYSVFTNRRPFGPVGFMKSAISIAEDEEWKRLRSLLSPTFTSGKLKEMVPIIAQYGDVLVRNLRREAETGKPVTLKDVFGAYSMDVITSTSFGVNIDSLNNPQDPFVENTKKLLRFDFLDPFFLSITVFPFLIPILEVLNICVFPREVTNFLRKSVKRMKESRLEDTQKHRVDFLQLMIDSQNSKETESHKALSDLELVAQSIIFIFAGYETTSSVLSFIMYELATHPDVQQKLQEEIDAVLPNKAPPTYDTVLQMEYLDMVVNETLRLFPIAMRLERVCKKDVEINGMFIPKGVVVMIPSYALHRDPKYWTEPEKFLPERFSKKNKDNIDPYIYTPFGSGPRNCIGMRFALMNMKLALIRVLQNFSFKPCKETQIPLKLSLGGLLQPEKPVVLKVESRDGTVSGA

Q: For `COC(=O)[C@@H]1C[C@@]2(O)[C@H](O)[C@H](O)[C@H](O)C[C@H]2N1Cc1ccc(-c2ccccc2)cc1`, which AC50 [1] is on record?
A: The AC50 was 15.8 µM (inconclusive).

Q: With `c1cc2cn[nH]c2cc1NC1CCCCCC1` as the compound, how does the IC50 [2] read?
A: The IC50 was 1.94 µM (active).

Q: And the IC50 [3]?
A: The IC50 was > 50 µM (not active).

Q: And the EC50 [4]?
A: Its EC50 is 8.81 µM (active).

Q: And the IC50 [5]?
A: Its IC50 is > 50 µM (not active).

Q: What does the source list for `CC(C)(C)c1ccc(S(=O)(=O)/C=C\C#N)cc1`?
A: AC50 [6]: 7.94 µM (inconclusive); AC50 [7]: 2.51 µM (inconclusive)

Q: With `OCC1OC(c2ccc3c(c2)OCO3)C=CC1Oc1cc(Cl)cc(Cl)c1` (centres undefined) as the compound, how does the AC50 [7] read?
A: Its AC50 is 3.98 µM (inconclusive).

Q: For `Cc1ccc(S(=O)(=O)Nc2cc(Cl)c(O)c3ncccc23)cc1`, which EC50 [8] is on record?
A: Its EC50 is 8.9 µM (active).

Q: And the CC50 [9]?
A: Its CC50 is 5.28 µM (active).

Q: What about the EC50 [10] of the same compound?
A: The EC50 was 9.72 µM (active).

Q: And the IC50 [11]?
A: Its IC50 is 11.1 µM (inactive).

Q: What about the AC50 [12] of the same compound?
A: Its AC50 is 2.4 µM (active).

Q: And the IC50 [13]?
A: Its IC50 is > 66 µM (inactive).

Q: And the IC50 [14]?
A: The IC50 was 4.8 µM (active).

Q: And the AC50 [15]?
A: Its AC50 is 2.38 µM (active).

Q: And the IC50 [16]?
A: The IC50 was 11.5 µM (active).

Q: What about the IC50 [17] of the same compound?
A: The IC50 was > 66 µM (inactive).

Q: What about the IC50 [18] of the same compound?
A: Its IC50 is 21.2 µM (inactive).

Q: With `CC(C)(C)c1ccc(C(=O)O/N=C(\N)c2ccccc2)cc1` as the compound, how does the EC50 [19] read?
A: The EC50 was 4.8 µM (active).

Q: And the IC50 [20]?
A: Its IC50 is 5.99 µM (active).

Q: And the IC50 [14]?
A: Its IC50 is 5.77 µM (active).

Q: What about the IC50 [21] of the same compound?
A: The IC50 was > 80 µM (inactive).

Q: Which AC50 [1] does the source give for `COc1cc(O)c(C(=O)c2ccccc2)cc1O` [CEAROIN] here?
A: The AC50 was 0.794 µM (inconclusive).
